Structures can show the parent of a compound that is named as a salt. Where two headings read alike, the source gives them in different places.

For one data set, the target named is CYP3A4 (Homo sapiens, UniProt P08684). Put plainly: biochemical.
In the next data set the target is T1, human CYP1A2 (Homo sapiens, UniProt P05177).
T1 sequence (P05177 1-516): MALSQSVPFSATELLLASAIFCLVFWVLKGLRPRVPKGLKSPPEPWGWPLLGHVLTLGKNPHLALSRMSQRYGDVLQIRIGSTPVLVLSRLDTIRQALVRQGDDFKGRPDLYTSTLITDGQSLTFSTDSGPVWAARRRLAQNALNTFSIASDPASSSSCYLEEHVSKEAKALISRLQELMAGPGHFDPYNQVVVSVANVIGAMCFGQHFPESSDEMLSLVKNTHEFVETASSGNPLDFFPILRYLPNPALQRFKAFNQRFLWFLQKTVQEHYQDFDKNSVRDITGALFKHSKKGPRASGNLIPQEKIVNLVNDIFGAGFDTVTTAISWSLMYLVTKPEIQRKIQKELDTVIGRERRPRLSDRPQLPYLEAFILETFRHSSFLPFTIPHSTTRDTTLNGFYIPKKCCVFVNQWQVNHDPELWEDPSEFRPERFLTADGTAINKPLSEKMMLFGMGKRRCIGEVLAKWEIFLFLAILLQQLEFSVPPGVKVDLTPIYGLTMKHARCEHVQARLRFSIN
As to the kind of experiment: biochemical.

Data set [1] has as its target T2, human CYP2C9 (Homo sapiens, UniProt P11712).
The target of data set [2] is T3, human CYP2C19 (Homo sapiens, UniProt P33261).
T3 sequence (P33261 whole entry): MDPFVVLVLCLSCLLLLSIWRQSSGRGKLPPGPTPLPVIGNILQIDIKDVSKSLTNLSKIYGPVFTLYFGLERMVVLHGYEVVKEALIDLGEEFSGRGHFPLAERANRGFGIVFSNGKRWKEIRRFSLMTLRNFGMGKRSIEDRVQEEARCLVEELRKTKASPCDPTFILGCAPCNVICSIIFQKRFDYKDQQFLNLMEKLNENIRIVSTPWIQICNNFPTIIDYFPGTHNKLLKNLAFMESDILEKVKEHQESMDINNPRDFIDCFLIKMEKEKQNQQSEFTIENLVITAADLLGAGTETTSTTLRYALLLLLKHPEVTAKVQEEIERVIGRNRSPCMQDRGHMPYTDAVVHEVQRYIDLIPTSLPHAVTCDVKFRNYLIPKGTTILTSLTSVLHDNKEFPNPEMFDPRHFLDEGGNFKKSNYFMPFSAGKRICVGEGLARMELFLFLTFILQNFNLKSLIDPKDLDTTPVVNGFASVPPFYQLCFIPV
A further data set addresses human CYP2D6 (Homo sapiens, UniProt P10635).
Data set [3] addresses T2, human CYP2C9. Put plainly: biochemical.
The target in data set [4] is T3, human CYP2C19. As to the kind of experiment: biochemical.
Setting [5] is: CYP3A4 AC50 (half-maximal activity concentration).
Setting [6] is: CYP1A2 AC50 (half-maximal activity concentration).
[7] abbreviates: CYP2C9 AC50 (half-maximal activity concentration).
[8] abbreviates: CYP2C19 AC50 (half-maximal activity concentration).

CYP3A4, sequence (P08684 whole entry): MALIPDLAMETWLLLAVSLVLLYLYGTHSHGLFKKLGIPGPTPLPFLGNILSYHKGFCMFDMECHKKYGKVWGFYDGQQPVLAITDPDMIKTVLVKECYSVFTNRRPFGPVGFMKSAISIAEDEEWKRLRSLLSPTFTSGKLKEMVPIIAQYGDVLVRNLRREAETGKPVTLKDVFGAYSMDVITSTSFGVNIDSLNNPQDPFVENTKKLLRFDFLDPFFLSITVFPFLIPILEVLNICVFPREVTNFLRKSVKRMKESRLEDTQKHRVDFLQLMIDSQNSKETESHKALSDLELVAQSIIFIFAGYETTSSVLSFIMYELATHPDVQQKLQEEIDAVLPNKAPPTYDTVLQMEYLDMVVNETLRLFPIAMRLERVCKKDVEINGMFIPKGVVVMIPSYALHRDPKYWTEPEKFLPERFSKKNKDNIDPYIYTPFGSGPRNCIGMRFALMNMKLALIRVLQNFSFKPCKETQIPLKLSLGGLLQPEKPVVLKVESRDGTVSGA
T2 sequence (P11712 whole entry): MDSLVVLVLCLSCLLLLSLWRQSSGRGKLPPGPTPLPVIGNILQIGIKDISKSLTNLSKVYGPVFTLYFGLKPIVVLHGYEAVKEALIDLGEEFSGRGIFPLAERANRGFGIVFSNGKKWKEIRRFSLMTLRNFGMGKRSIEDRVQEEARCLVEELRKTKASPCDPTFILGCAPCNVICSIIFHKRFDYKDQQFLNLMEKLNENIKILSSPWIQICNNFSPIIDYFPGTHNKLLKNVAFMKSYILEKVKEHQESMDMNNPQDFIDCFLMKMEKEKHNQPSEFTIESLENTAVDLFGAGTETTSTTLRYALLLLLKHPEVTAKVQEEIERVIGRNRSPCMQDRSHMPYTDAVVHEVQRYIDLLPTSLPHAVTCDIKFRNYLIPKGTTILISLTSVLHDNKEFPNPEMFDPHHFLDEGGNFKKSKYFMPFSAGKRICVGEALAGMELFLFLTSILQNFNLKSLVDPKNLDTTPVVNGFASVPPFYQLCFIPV
human CYP2D6, sequence (P10635 whole entry): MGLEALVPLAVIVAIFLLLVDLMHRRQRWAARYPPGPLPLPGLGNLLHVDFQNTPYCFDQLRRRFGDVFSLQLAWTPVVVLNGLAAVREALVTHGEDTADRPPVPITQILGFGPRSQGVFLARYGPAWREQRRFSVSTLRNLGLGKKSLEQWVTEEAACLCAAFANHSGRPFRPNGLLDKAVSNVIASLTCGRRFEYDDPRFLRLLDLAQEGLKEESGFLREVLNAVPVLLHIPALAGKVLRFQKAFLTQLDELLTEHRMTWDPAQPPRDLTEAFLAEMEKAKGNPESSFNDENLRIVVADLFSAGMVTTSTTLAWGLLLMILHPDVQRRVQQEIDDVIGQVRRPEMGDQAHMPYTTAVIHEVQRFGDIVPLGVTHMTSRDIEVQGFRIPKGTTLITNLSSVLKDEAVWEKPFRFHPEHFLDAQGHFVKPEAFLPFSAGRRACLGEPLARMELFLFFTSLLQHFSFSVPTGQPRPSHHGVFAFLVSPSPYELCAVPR

Regarding `Clc1nnc(Cl)c2ccccc12` [1,4-Dichlorophthalazine], the results for the AC50 at CYP3A4 and at human CYP1A2 were 5.51 µM and 9.06 µM, respectively. For the same molecule, the “CYP2C9 AC50 (half-maximal activity concentration)” value (“CYP2C9 AC50” below) at human CYP2C9 [1] is reported as “Inactive”. Besides, on human CYP2C19 [2], the “CYP2C19 AC50 (half-maximal activity concentration)” value (from here on “CYP2C19 AC50”) is recorded as “Inactive”. The “CYP2D6 AC50 (half-maximal activity concentration)” value (“CYP2D6 AC50” below) at human CYP2D6 was “Inconclusive inhibitor”.
On to `O=[N+]([O-])c1cccc(Cl)c1Cl` [2,3-Dichloronitrobenzene], for which the figures for the AC50 at CYP3A4 (setting [5]) and on human CYP1A2 (setting [6]) were 29.1 µM and 34.6 µM, respectively. At human CYP2C9 [1], the “CYP2C9 AC50” value is recorded as “Inconclusive activator”. Besides, the “CYP2C19 AC50” value on human CYP2C19 [2] was “Inactive”. For the same molecule, the “CYP2D6 AC50” value on human CYP2D6 is recorded as “Inactive”.
Regarding `O=[N+]([O-])c1c(Cl)cc(Cl)cc1Cl` [2,4,6-Trichloronitrobenzene], the AC50 on CYP3A4 (setting [5]) came to 6.35 µM; at human CYP1A2 (setting [6]) it was 34.7 µM. Also, the “CYP2C9 AC50” value at human CYP2C9 [1] is “Inactive”. In addition, the “CYP2C19 AC50” value on human CYP2C19 [2] is given as “Inactive”. Moreover, the “CYP2D6 AC50” value at human CYP2D6 is “Inactive”.
For the molecule `O=[N+]([O-])c1ccccc1CCl` [2-Nitrobenzyl chloride], the AC50 was determined as 36.1 µM on CYP3A4 (setting [5]) and 56.1 µM at human CYP1A2 (setting [6]). For the same molecule, the “CYP2C9 AC50” value on human CYP2C9 [1] is given as “Inactive”. In addition, the “CYP2C19 AC50” value on human CYP2C19 [2] is “Inconclusive inhibitor”. For the same molecule, the “CYP2D6 AC50” value on human CYP2D6 is “Inconclusive inhibitor”.
Turning to `O=C(O)c1ccc(Cl)c(Cl)c1` [3,4-Dichlorobenzoic acid], the AC50 was 59.7 µM on CYP3A4 (setting [5]) and 59.2 µM on human CYP1A2 (setting [6]). Further, the “CYP2C9 AC50” value at human CYP2C9 [1] is listed as “Inconclusive inhibitor”. For the same molecule, on human CYP2C19 [2], the “CYP2C19 AC50” value is listed as “Inconclusive inhibitor”. At human CYP2D6, the “CYP2D6 AC50” value is “Inactive”.
With `O=[N+]([O-])c1cccc2cccnc12` [8-Nitroquinoline], the figures for the AC50 at CYP3A4 (setting [5]) and on human CYP1A2 (setting [6]) were 38 µM and 33.9 µM, respectively. On human CYP2C9 [1], the “CYP2C9 AC50” value is “Inactive”. Besides, the “CYP2C19 AC50” value at human CYP2C19 [2] is on record as “Inconclusive inhibitor”. On human CYP2D6, the “CYP2D6 AC50” value is listed as “Inactive”.
With `COC(=O)c1cccc(C(=O)OC)c1` [Dimethyl isophthalate], the AC50 on CYP3A4 stood at 52.6 µM; on human CYP1A2, 9.71 µM. The “CYP2C9 AC50” value at human CYP2C9 [1] is “Inactive”. Moreover, at human CYP2C19 [2], the “CYP2C19 AC50” value is “Inconclusive inhibitor”. The “CYP2D6 AC50” value at human CYP2D6 is recorded as “Inactive”.
`COC(=O)c1ccc(C(=O)OC)cc1` [Dimethyl terephthalate]: the values for the AC50 on CYP3A4 (setting [5]) and on human CYP1A2 (setting [6]) were 40.1 µM and 9.66 µM, respectively. Besides, the “CYP2C9 AC50” value at human CYP2C9 [1] was “Inactive”. The “CYP2C19 AC50” value at human CYP2C19 [2] is “Inactive”. Besides, on human CYP2D6, the “CYP2D6 AC50” value is listed as “Inactive”.
As to `CCCCc1c(C)nc(NCC)[nH]c1=O` [Ethirimol], the values for the AC50 on CYP3A4 (setting [5]) and at human CYP1A2 (setting [6]) were 31.8 µM and 31.1 µM, respectively. In addition, the “CYP2C9 AC50” value at human CYP2C9 [1] is listed as “Inactive”. Further, the “CYP2C19 AC50” value on human CYP2C19 [2] was “Inconclusive inhibitor”. The “CYP2D6 AC50” value at human CYP2D6 was “Inactive”.
As to `CCOC(=O)COC(=O)c1ccccc1C(=O)OCC` [Ethyl phthalyl ethyl glycolate], the AC50 was 31.9 µM on human CYP2C9 [3], 47.4 µM on CYP3A4, 7.68 µM at human CYP1A2 and 20.8 µM on human CYP2C19 [4]. Moreover, the “CYP2D6 AC50” value on human CYP2D6 was “Inactive”.
Take `CCOC(=O)C(C)Oc1ccc(Oc2nc3ccc(Cl)cc3o2)cc1` (centres unmarked) [Fenoxaprop-ethyl]: the AC50 was found to be 44 µM at human CYP2C9 [3] (setting [7]), 28.4 µM at CYP3A4 (setting [5]), 23.9 µM at human CYP1A2 (setting [6]) and 53 µM on human CYP2C19 [4] (setting [8]). In addition, at human CYP2D6, the “CYP2D6 AC50” value is listed as “Inconclusive inhibitor”.
The matching figures for `N#Cc1c[nH]cc1-c1cccc2c1OC(F)(F)O2` [Fludioxonil]: 18.6 µM, 5.11 µM, 1.53 µM, 5.3 µM and “Inactive”.
With `CC(C)N(C(=O)COc1nnc(C(F)(F)F)s1)c1ccc(F)cc1` [Flufenacet], the AC50 on human CYP2C9 [3] (setting [7]) stood at 35.6 µM; on CYP3A4 (setting [5]), 19.3 µM; at human CYP1A2 (setting [6]), 37 µM; at human CYP2C19 [4] (setting [8]), 3.4 µM. Further, at human CYP2D6, the “CYP2D6 AC50” value is recorded as “Inactive”.
Turning to `CC(=O)[C@H]1CC[C@H]2[C@@H]3CC[C@H]4C[C@](C)(O)CC[C@]4(C)[C@H]3CC[C@]12C` [Ganaxolone], the AC50 came out at 3.37 µM at CYP3A4 (setting [5]) and 25.3 µM on human CYP1A2 (setting [6]). The “CYP2C9 AC50” value on human CYP2C9 [1] is reported as “Inactive”. In addition, on human CYP2C19 [2], the “CYP2C19 AC50” value is “Inactive”. At human CYP2D6, the “CYP2D6 AC50” value is on record as “Inactive”.
Consider `N#Cc1cc(I)c(O)c(I)c1` [Ioxynil], for which the AC50 was found to be 22.4 µM on human CYP2C9 [3] (setting [7]), 38.5 µM on CYP3A4 (setting [5]), 46.2 µM on human CYP1A2 (setting [6]) and 83.2 µM at human CYP2C19 [4] (setting [8]). In addition, the “CYP2D6 AC50” value at human CYP2D6 is “Inactive”.
Taken in the same sequence, the figures for `O=C(NC(=O)c1c(F)cccc1F)Nc1cc(Cl)c(OC(F)(F)C(F)C(F)(F)F)cc1Cl` (centres unmarked) [Lufenuron] were 11.3 µM, 7.45 µM, 35.7 µM, 10.9 µM and “Inactive”.
Taken in the same sequence, the figures for `CCCCCC1C(=O)CCC1CC(=O)OC` (centres unmarked) [Methyl dihydrojasmonate] were 28.4 µM, 8.73 µM, 27.2 µM, 2.53 µM and “Inconclusive inhibitor”.
Taken in the same sequence, the figures for `BrC(Br)C(Br)(Br)Br` [Pentabromoethane] were 22.7 µM, 16.1 µM, 33.2 µM, 48.6 µM and “Inconclusive inhibitor”.
For the molecule `Clc1nc(Cl)c(Cl)c(Cl)c1Cl` [Pentachloropyridine], the AC50 at human CYP2C9 [3] (setting [7]) was determined as 62.4 µM; at CYP3A4 (setting [5]), 8.61 µM; at human CYP1A2 (setting [6]), 41.8 µM; at human CYP2C19 [4] (setting [8]), 61.1 µM. The “CYP2D6 AC50” value on human CYP2D6 is “Inactive”.
As for `CSc1nc(NC(C)C)nc(NC(C)C)n1` [Prometryn], the AC50 at human CYP2C9 [3] (setting [7]) stood at 58.2 µM; on CYP3A4 (setting [5]), 29.1 µM; on human CYP1A2 (setting [6]), 17.3 µM; at human CYP2C19 [4] (setting [8]), 71 µM. For the same molecule, the “CYP2D6 AC50” value on human CYP2D6 is given as “Inactive”.
Taken in the same sequence, the figures for `CC(C)(C)c1ccc(CSc2cnn(C(C)(C)C)c(=O)c2Cl)cc1` [Pyridaben] were 7.2 µM, 4.7 µM, 25.6 µM, 8.29 µM and “Inactive”.
The matching figures for `CC(COc1ccc(Oc2ccccc2)cc1)Oc1ccccn1` (centres unmarked) [Pyriproxyfen]: 12 µM, 29.7 µM, 17.3 µM, 12.4 µM and “Inactive”.
`CCCCCCCCOS(=O)(=O)O` [Sodium octyl sulfate]: the AC50 at human CYP2C9 [3] was found to be 30.6 µM; on CYP3A4, 62.6 µM; at human CYP1A2, 68.4 µM; on human CYP2C19 [4], 52.3 µM. The “CYP2D6 AC50” value at human CYP2D6 is reported as “Inactive”.
For `O=C(NC(=O)c1c(F)cccc1F)Nc1cc(Cl)c(F)c(Cl)c1F` [Teflubenzuron], the AC50 came to 46.5 µM on human CYP2C9 [3] (setting [7]), 57.7 µM on CYP3A4 (setting [5]), 32.5 µM on human CYP1A2 (setting [6]) and 69.2 µM at human CYP2C19 [4] (setting [8]). On human CYP2D6, the “CYP2D6 AC50” value is “Inactive”.
For `IC(I)=C(I)I` [Tetraiodoethene], the AC50 on human CYP2C9 [3] (setting [7]) amounted to 3.57 µM; at CYP3A4 (setting [5]) it was 19.5 µM; on human CYP1A2 (setting [6]) it was 13 µM; on human CYP2C19 [4] (setting [8]), 9.09 µM. Also, on human CYP2D6, the “CYP2D6 AC50” value is on record as “Inactive”.
The matching figures for `O=CC(Br)(Br)Br` [Tribromoacetaldehyde]: 18.4 µM, 10.2 µM, 29.6 µM, 53.3 µM and “Inconclusive inhibitor”.
The matching figures for `O=P(Oc1ccccc1)(Oc1ccccc1)Oc1ccccc1` [Triphenyl phosphate]: 6.87 µM, 6.42 µM, 10.8 µM, 6.53 µM and “Inactive”.
`c1ccc(-c2ccccc2-c2ccccc2)cc1` [o-Terphenyl]: the AC50 on human CYP2C9 [3] (setting [7]) is 26.5 µM; at CYP3A4 (setting [5]) it was 24.7 µM; on human CYP1A2 (setting [6]), 2.91 µM; on human CYP2C19 [4] (setting [8]), 15.9 µM. In addition, the “CYP2D6 AC50” value on human CYP2D6 is listed as “Inactive”.

Broadly, the AC50 is the concentration at which the activity in the assay is half-maximal. Read a low AC50 as greater potency.

Source of the values: publication PMC12155096 (International Journal of Molecular Sciences, 2025).
